Drawing on patent US9555039B2, “Piperidine derivatives and compositions for the inhibition of nicotinamide phosphoribosyltransferase (NAMPT)” (Forma TM, LLC., priority 2011, dated 2017), this text covers IC50 for 31 compounds.

Experiment [1] concerns A2780 cells. In words: In-vitro cell proliferation assay (SRB, 72 hours). The conditions noted are these: Homo sapiens, sulforhodamine B (SRB) assay. In kind it is cell-based. In short, it runs like this:
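Background from media-only plate subtracted; inhibition relative to DMSO-treated cells, value derived by interpolation between two concentrations.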
(In general: Sulforhodamine B stains cellular protein and so reports cell mass.)

Experiment [2] concerns the target T1, Recombinant His-tagged NAMPT (Homo sapiens, UniProt P43490).
T1 construct: His; host or cells: E. coli
In words: Biochemical inhibition assay: NAMPT enzymatic reaction, NMN quantified by mass spectrometry. The settings on record: 33 nM NAMPT, 1 μM NAM, 100 μM PRPP, 2.5 mM ATP, 30 minutes at room temperature; read-out: Biochem IC50. In short, it runs like this:
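Reaction 30 min at room temperature with 1 μM NAM, 100 μM PRPP, 2.5 mM ATP (final), quenched with formic acid. NMN quantified by RapidFire electrospray MS, normalized to L-cystathionine; IC50 from percent inhibition versus DMSO.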

T1 sequence (P43490 whole entry): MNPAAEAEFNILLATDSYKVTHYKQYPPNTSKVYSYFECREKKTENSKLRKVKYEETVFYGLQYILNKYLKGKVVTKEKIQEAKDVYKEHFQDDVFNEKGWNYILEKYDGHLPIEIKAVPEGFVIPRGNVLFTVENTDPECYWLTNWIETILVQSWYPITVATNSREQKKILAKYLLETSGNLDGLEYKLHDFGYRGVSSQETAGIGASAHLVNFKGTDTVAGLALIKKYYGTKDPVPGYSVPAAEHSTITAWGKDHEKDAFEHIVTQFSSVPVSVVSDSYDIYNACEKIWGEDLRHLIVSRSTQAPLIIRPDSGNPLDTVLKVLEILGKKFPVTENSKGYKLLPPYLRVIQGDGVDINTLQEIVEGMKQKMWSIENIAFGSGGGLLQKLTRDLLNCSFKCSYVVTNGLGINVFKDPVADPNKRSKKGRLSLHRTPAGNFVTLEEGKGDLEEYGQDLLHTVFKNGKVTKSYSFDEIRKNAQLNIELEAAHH

For orientation: IC50 means the concentration that inhibits the measured activity by half. With `O=C(NCCCCC1CCN(C(=O)c2ccc(OC(F)(F)F)cc2)CC1)c1ccc2nccn2c1` [N-[4-(1-{[4-(trifluoromethoxy)phenyl]carbonyl}piperidin-4-yl)butyl]imidazo[1,2-a]pyridine-6-carboxamide], the IC50 in experiment [1] was 100 to 1000 nM; in experiment [2], 91 nM.

For the compound `O=C(NCCCCC1CCN(C(=O)c2cccnc2)CC1)c1ccc2nccn2c1` [N-(4-{1-[(pyridin-3-yl)carbonyl]piperidin-4-yl}butyl)imidazo[1,2-a]pyridine-6-carboxamide], the IC50 is 27.4 nM in experiment [1] and 12.7 nM in experiment [2].

In the case of `Cc1ccc(C(=O)N2CCC(CCCCNC(=O)c3cc4cnccc4[nH]3)CC2)cc1F` [N-(4-{1-[(3-fluoro-4-methylphenyl)carbonyl]piperidin-4-yl}butyl)-1H-pyrrolo[3,2-c]pyridine-2-carboxamide], the IC50 amounted to 22.4 nM in experiment [1] and 77.1 nM in experiment [2].

For `O=C(NCCCCC1CCN(C(=O)c2ccc(C(F)(F)F)cc2)CC1)c1ccc2nccn2c1` [N-[4-(1-{[4-(trifluoromethyl)phenyl]carbonyl}piperidin-4-yl)butyl]imidazo[1,2-a]pyridine-6-carboxamide], the IC50 in experiment [1] is 100 to 1000 nM; in experiment [2], 152 nM.

With `O=C(NCCCCC1CCN(C(=O)c2cnccc2C(F)(F)F)CC1)c1cc2ccncc2s1` [N-[4-(1-{[4-(trifluoromethyl)pyridin-3-yl]carbonyl}piperidin-4-yl)butyl]thieno[2,3-c]pyridine-2-carboxamide], the IC50 in experiment [1] is 6.9 nM; in experiment [2], 9.9 nM.

Consider `Cc1c(F)cccc1C(=O)N1CCC(CCCCNC(=O)c2cc3cnccc3[nH]2)CC1` [N-(4-{1-[(3-fluoro-2-methylphenyl)carbonyl]piperidin-4-yl}butyl)-1H-pyrrolo[3,2-c]pyridine-2-carboxamide], for which the IC50 in experiment [1] was 3.1 nM; in experiment [2], 20.5 nM.

As to `CC(C)Oc1ccc(C(=O)N2CCC(CCCCNC(=O)c3ccc4nccn4c3)CC2)cc1` [N-[4-(1-{[4-(propan-2-yloxy)phenyl]carbonyl}piperidin-4-yl)butyl]imidazo[1,2-a]pyridine-6-carboxamide], the IC50 is 20.9 nM in experiment [1] and 55.2 nM in experiment [2].

`Cc1cnc(C(=O)N2CCC(CCCCNC(=O)c3cc4cnccc4[nH]3)CC2)cn1` [N-(4-{1-[(5-methylpyrazin-2-yl)carbonyl]piperidin-4-yl}butyl)-1H-pyrrolo[3,2-c]pyridine-2-carboxamide]: the results for the IC50 in experiment [1] and in experiment [2] were 23.8 nM and 115 nM, respectively.

`O=C(NCCCCC1CCN(C(=O)c2ccc(F)cn2)CC1)c1ccc2nccn2c1` [N-(4-{1-[(5-fluoropyridin-2-yl)carbonyl]piperidin-4-yl}butyl)imidazo[1,2-a]pyridine-6-carboxamide]: the concentration for half-maximal inhibition (IC50) came to 67.9 nM in experiment [1] and 74 nM in experiment [2].

For the compound `O=C(NCCCCC1CCN(C(=O)c2ccccc2)CC1)c1cc2cnccc2[nH]1` [N-[4-(1-benzoylpiperidin-4-yl)butyl]-1H-pyrrolo[3,2-c]pyridine-2-carboxamide], the values for the IC50 in experiment [1] and in experiment [2] were 1.4 nM and 8.1 nM, respectively.

As to `O=C(NCCCCC1CCN(S(=O)(=O)c2ccc(C(F)(F)F)nc2)CC1)c1cc2cnccc2[nH]1` [N-(4-{1-[6-(trifluoromethyl)pyridine-3-sulfonyl]piperidin-4-yl}butyl)-1H-pyrrolo[3,2-c]pyridine-2-carboxamide], the 50% inhibitory concentration (IC50) in experiment [1] was 29.8 nM; in experiment [2] it was 81.5 nM.

`O=C(NCCCCC1CCN(C(=O)c2ccc3ncsc3c2)CC1)c1ccc2nccn2c1` [N-(4-{1-[(1,3-benzothiazol-6-yl)carbonyl]piperidin-4-yl}butyl)imidazo[1,2-a]pyridine-6-carboxamide]: the IC50 in experiment [1] was determined as 39.3 nM; in experiment [2], 23.7 nM.

For the compound `Cc1ccc(F)cc1C(=O)N1CCC(CCCCNC(=O)c2cc3cnccc3[nH]2)CC1` [N-(4-{1-[(5-fluoro-2-methylphenyl)carbonyl]piperidin-4-yl}butyl)-1H-pyrrolo[3,2-c]pyridine-2-carboxamide], the IC50 in experiment [1] worked out at 2.3 nM; in experiment [2] it was 14.2 nM.

Consider `O=C(NCCCCC1CCN(C(=O)c2ccc(C(F)(F)F)nc2)CC1)c1cc2cnccc2[nH]1` [N-[4-(1-{[6-(trifluoromethyl)pyridin-3-yl]carbonyl}piperidin-4-yl)butyl]-1H-pyrrolo[3,2-c]pyridine-2-carboxamide], for which the figures for the IC50 in experiment [1] and in experiment [2] were 47.6 nM and 278 nM, respectively.

For `O=C(NCCCCC1CCN(C(=O)c2ccc(F)cc2F)CC1)c1cc2cnccc2[nH]1` [N-(4-{1-[(2,4-difluorophenyl)carbonyl]piperidin-4-yl}butyl)-1H-pyrrolo[3,2-c]pyridine-2-carboxamide], the IC50 in experiment [1] was found to be 8.1 nM; in experiment [2], 39.3 nM.

For the compound `O=C(NCCCCC1CCN(C(=O)C2CCCCC2)CC1)c1ccc2nccn2c1` [N-[4-(1-cyclohexanecarbonylpiperidin-4-yl)butyl]imidazo[1,2-a]pyridine-6-carboxamide], the IC50 in experiment [1] came out at 0.9 nM; in experiment [2], 18.1 nM.

`O=C(NCCCOC1CCN(C(=O)c2ccccc2F)CC1)c1cc2cnccc2[nH]1` [N-(3-((1-(2-fluorobenzoyl)piperidin-4-yl)oxy)propyl)-1H-pyrrolo[3,2-c]pyridine-2-carboxamide]: the IC50 in experiment [1] worked out at 177 nM; in experiment [2] it was 35 nM.

As for `O=C(NCCCCC1CCN(C(=O)c2cc3ccccc3[nH]2)CC1)c1ccc2nccn2c1` [N-(4-{1-[(1H-indol-2-yl)carbonyl]piperidin-4-yl}butyl)imidazo[1,2-a]pyridine-6-carboxamide], the IC50 is 100 to 1000 nM in experiment [1] and 61.6 nM in experiment [2].

`Cc1c(F)cccc1C(=O)N1CCC(CCCCNC(=O)c2ccc3nccn3c2)CC1` [N-(4-{1-[(3-fluoro-2-methylphenyl)carbonyl]piperidin-4-yl}butyl)imidazo[1,2-a]pyridine-6-carboxamide]: the IC50 is 3.5 nM in experiment [1] and 13.1 nM in experiment [2].

For the compound `O=C(NCCCCC1CCN(C(=O)c2ccc(Cl)cc2Cl)CC1)c1cc2ccncc2s1` [N-(4-{1-[(2,4-dichlorophenyl)carbonyl]piperidin-4-yl}butyl)thieno[2,3-c]pyridine-2-carboxamide], the IC50 was 86.1 nM in experiment [1] and 41 nM in experiment [2].

With `O=C(NCCCCC1CCN(S(=O)(=O)c2ccc(C(F)(F)F)cc2)CC1)c1cc2cnccc2[nH]1` [N-[4-(1-{[4-(trifluoromethyl)benzene]sulfonyl}piperidin-4-yl)butyl]-1H-pyrrolo[3,2-c]pyridine-2-carboxamide], the IC50 in experiment [1] is 23.3 nM; in experiment [2], 74.8 nM.

For `CCOc1ncccc1C(=O)N1CCC(CCCCNC(=O)c2ccc3nccn3c2)CC1` [N-(4-{1-[(2-ethoxypyridin-3-yl)carbonyl]piperidin-4-yl}butyl)imidazo[1,2-a]pyridine-6-carboxamide], the IC50 was determined as 0.5 nM in experiment [1] and 9.2 nM in experiment [2].

Consider `O=C(NCCCCC1CCN(C(=O)c2cnccc2C(F)(F)F)CC1)c1cc2cnccc2[nH]1` [N-[4-(1-{[4-(trifluoromethyl)pyridin-3-yl]carbonyl}piperidin-4-yl)butyl]-1H-pyrrolo[3,2-c]pyridine-2-carboxamide], for which the IC50 in experiment [1] was 2.9 nM; in experiment [2], 39.8 nM.

With `COc1cccc(C(=O)N2CCC(CCCCNC(=O)c3ccc4nccn4c3)CC2)c1OC` [N-(4-{1-[(2,3-dimethoxyphenyl)carbonyl]piperidin-4-yl}butyl)imidazo[1,2-a]pyridine-6-carboxamide], the IC50 in experiment [1] came to 2.9 nM; in experiment [2], 19.1 nM.

Turning to `O=C(NCCCCC1CCN(C(=O)c2ccc(F)c(F)c2)CC1)c1ccc2nccn2c1` [N-(4-{1-[(3,4-difluorophenyl)carbonyl]piperidin-4-yl}butyl)imidazo[1,2-a]pyridine-6-carboxamide], the IC50 in experiment [1] came to 66.2 nM; in experiment [2], 19 nM.

`CCOc1cccc(C(=O)N2CCC(CCCCNC(=O)c3cc4cnccc4[nH]3)CC2)c1` [N-(4-{1-[(3-ethoxyphenyl)carbonyl]piperidin-4-yl}butyl)-1H-pyrrolo[3,2-c]pyridine-2-carboxamide]: the figures for the IC50 in experiment [1] and in experiment [2] were 11 nM and 85.1 nM, respectively.

For `CC(C)c1ccc(C(=O)N2CCC(CCCCNC(=O)c3cc4cnccc4[nH]3)CC2)nc1` [N-[4-(1-{[5-(propan-2-yl)pyridin-2-yl]carbonyl}piperidin-4-yl)butyl]-1H-pyrrolo[3,2-c]pyridine-2-carboxamide], the values for the IC50 in experiment [1] and in experiment [2] were 14.1 nM and 163 nM, respectively.

For `O=C(NCCCCN1CCN(C(=O)c2cccc(Cl)c2)CC1)c1cc2cnccc2[nH]1` [N-(4-{4-[(3-chlorophenyl)carbonyl]piperazin-1-yl}butyl)-1H-pyrrolo[3,2-c]pyridine-2-carboxamide], the IC50 in experiment [1] was 347 nM; in experiment [2], 106 nM.

For `COc1ccc(S(=O)(=O)N2CCC(CCCCNC(=O)c3cc4cnccc4[nH]3)CC2)c(OC)c1` [N-(4-{1-[(2,4-dimethoxybenzene)sulfonyl]piperidin-4-yl}butyl)-1H-pyrrolo[3,2-c]pyridine-2-carboxamide], the IC50 is 1.7 nM in experiment [1] and 19.1 nM in experiment [2].

On to `CC(C)c1ccc(C(=O)N2CCC(CCCCNC(=O)c3ccc4nccn4c3)CC2)cn1` [N-[4-(1-{[6-(propan-2-yl)pyridin-3-yl]carbonyl}piperidin-4-yl)butyl]imidazo[1,2-a]pyridine-6-carboxamide], for which the values for the IC50 in experiment [1] and in experiment [2] were 26.1 nM and 38.7 nM, respectively.

Regarding `O=C(NCCCCC1CCN(C(=O)c2ccc(OC(F)F)cc2)CC1)c1cc2ccncc2s1` [N-[4-(1-{[4-(difluoromethoxy)phenyl]carbonyl}piperidin-4-yl)butyl]thieno[2,3-c]pyridine-2-carboxamide], the IC50 in experiment [1] was 100 to 1000 nM; in experiment [2] it was 77.4 nM.
